Results taken from ChEMBL document CHEMBL4627246, “Pyroglutamide-Based P2X7 Receptor Antagonists Targeting Inflammatory Bowel Disease” (J Med Chem, 2020).

Each compound was assayed on CCRF-CEM (assay: Cytotoxicity against human CCRF-CEM cells assessed as effect on cell growth at 10 uM incubated for 48 hrs by sulforhodamine B assay). Details: not given.
Format: cell-based

SMILES | Activity
CN(C)/C=C1\C[C@H]2C(=O)N(Cc3ccccc3Cl)C(N(C)C)N2C1=O (stereo not given in full) | Non-Toxic
O=C(Nc1ccc(Cl)cc1Cl)[C@@H]1CCC(=O)N1Cc1ccccc1Cl | Non-Toxic
O=C(NCc1ccccc1)[C@@H]1CCC(=O)N1Cc1ccc(Cl)cc1Cl | Non-Toxic

What follows are compounds tested on K562 (assay: Cytotoxicity against human K562 cells assessed as effect on cell growth at 10 uM incubated for 48 hrs by sulforhodamine B assay). Details: k562, 48 h.
Format: cell-based

SMILES | Activity
CN(C)/C=C1\C[C@H]2C(=O)N(Cc3ccccc3Cl)C(N(C)C)N2C1=O (stereo not given in full) | Non-Toxic
O=C(Nc1ccc(Cl)cc1Cl)[C@@H]1CCC(=O)N1Cc1ccccc1Cl | Non-Toxic
O=C(NCc1ccccc1)[C@@H]1CCC(=O)N1Cc1ccc(Cl)cc1Cl | Non-Toxic

What follows are compounds tested on HOP-62 (assay: Cytotoxicity against human HOP62 cells assessed as effect on cell growth at 10 uM incubated for 48 hrs by sulforhodamine B assay). Details: hop-62, 48 h.
Format: cell-based

SMILES | Activity
CN(C)/C=C1\C[C@H]2C(=O)N(Cc3ccccc3Cl)C(N(C)C)N2C1=O (stereo not given in full) | Non-Toxic
O=C(Nc1ccc(Cl)cc1Cl)[C@@H]1CCC(=O)N1Cc1ccccc1Cl | Non-Toxic
O=C(NCc1ccccc1)[C@@H]1CCC(=O)N1Cc1ccc(Cl)cc1Cl | Non-Toxic

These compounds were tested on NCI-H226 (assay: Cytotoxicity against human NCI-H226 cells assessed as effect on cell growth at 10 uM incubated for 48 hrs by sulforhodamine B assay). Details: nci-h226, 48 h.
Format: cell-based

SMILES | Activity
CN(C)/C=C1\C[C@H]2C(=O)N(Cc3ccccc3Cl)C(N(C)C)N2C1=O (stereo not given in full) | Non-Toxic
O=C(Nc1ccc(Cl)cc1Cl)[C@@H]1CCC(=O)N1Cc1ccccc1Cl | Non-Toxic
O=C(NCc1ccccc1)[C@@H]1CCC(=O)N1Cc1ccc(Cl)cc1Cl | Non-Toxic

The compounds below were run on SF-268 (assay: Cytotoxicity against human SF268 cells assessed as effect on cell growth at 10 uM incubated for 48 hrs by sulforhodamine B assay). Details: sf-268, 48 h.
Format: cell-based

SMILES | Activity
CN(C)/C=C1\C[C@H]2C(=O)N(Cc3ccccc3Cl)C(N(C)C)N2C1=O (stereo not given in full) | Non-Toxic
O=C(Nc1ccc(Cl)cc1Cl)[C@@H]1CCC(=O)N1Cc1ccccc1Cl | Non-Toxic
O=C(NCc1ccccc1)[C@@H]1CCC(=O)N1Cc1ccc(Cl)cc1Cl | Non-Toxic

What follows are compounds tested on LOX IMVI (assay: Cytotoxicity against human LOXIMVI cells assessed as effect on cell growth at 10 uM incubated for 48 hrs by sulforhodamine B assay). Details: not given.
Format: cell-based

SMILES | Activity
CN(C)/C=C1\C[C@H]2C(=O)N(Cc3ccccc3Cl)C(N(C)C)N2C1=O (stereo not given in full) | Non-Toxic
O=C(Nc1ccc(Cl)cc1Cl)[C@@H]1CCC(=O)N1Cc1ccccc1Cl | Non-Toxic
O=C(NCc1ccccc1)[C@@H]1CCC(=O)N1Cc1ccc(Cl)cc1Cl | Non-Toxic

Each compound was assayed on MDA-MB-435 (assay: Cytotoxicity against human MDA-MB-435 cells assessed as effect on cell growth at 10 uM incubated for 48 hrs by sulforhodamine B assay). Details: mda-mb-435, 48 h.
Format: cell-based

SMILES | Activity
CN(C)/C=C1\C[C@H]2C(=O)N(Cc3ccccc3Cl)C(N(C)C)N2C1=O (stereo not given in full) | Non-Toxic
O=C(Nc1ccc(Cl)cc1Cl)[C@@H]1CCC(=O)N1Cc1ccccc1Cl | Non-Toxic
O=C(NCc1ccccc1)[C@@H]1CCC(=O)N1Cc1ccc(Cl)cc1Cl | Non-Toxic

These compounds were tested on SK-MEL-2 (assay: Cytotoxicity against human SK-MEL-2 cells assessed as effect on cell growth at 10 uM incubated for 48 hrs by sulforhodamine B assay). Details: sk-mel-2, 48 h.
Format: cell-based

SMILES | Activity
CN(C)/C=C1\C[C@H]2C(=O)N(Cc3ccccc3Cl)C(N(C)C)N2C1=O (stereo not given in full) | Non-Toxic
O=C(Nc1ccc(Cl)cc1Cl)[C@@H]1CCC(=O)N1Cc1ccccc1Cl | Non-Toxic
O=C(NCc1ccccc1)[C@@H]1CCC(=O)N1Cc1ccc(Cl)cc1Cl | Non-Toxic

The compounds below were run on SK-MEL-28 (assay: Cytotoxicity against human SK-MEL-28 cells assessed as effect on cell growth at 10 uM incubated for 48 hrs by sulforhodamine B assay). Details: sk-mel-28, 48 h.
Format: cell-based

SMILES | Activity
CN(C)/C=C1\C[C@H]2C(=O)N(Cc3ccccc3Cl)C(N(C)C)N2C1=O (stereo not given in full) | Non-Toxic
O=C(Nc1ccc(Cl)cc1Cl)[C@@H]1CCC(=O)N1Cc1ccccc1Cl | Non-Toxic
O=C(NCc1ccccc1)[C@@H]1CCC(=O)N1Cc1ccc(Cl)cc1Cl | Non-Toxic

What follows are compounds tested on SK-MEL-5 (assay: Cytotoxicity against human SK-MEL-5 cells assessed as effect on cell growth at 10 uM incubated for 48 hrs by sulforhodamine B assay). Details: sk-mel-5, 48 h.
Format: cell-based

SMILES | Activity
CN(C)/C=C1\C[C@H]2C(=O)N(Cc3ccccc3Cl)C(N(C)C)N2C1=O (stereo not given in full) | Non-Toxic
O=C(Nc1ccc(Cl)cc1Cl)[C@@H]1CCC(=O)N1Cc1ccccc1Cl | Non-Toxic
O=C(NCc1ccccc1)[C@@H]1CCC(=O)N1Cc1ccc(Cl)cc1Cl | Non-Toxic

Each compound was assayed on UACC-257 (assay: Cytotoxicity against human UACC257 cells assessed as effect on cell growth at 10 uM incubated for 48 hrs by sulforhodamine B assay). Details: uacc-257, 48 h.
Format: cell-based

SMILES | Activity
CN(C)/C=C1\C[C@H]2C(=O)N(Cc3ccccc3Cl)C(N(C)C)N2C1=O (stereo not given in full) | Non-Toxic
O=C(Nc1ccc(Cl)cc1Cl)[C@@H]1CCC(=O)N1Cc1ccccc1Cl | Non-Toxic
O=C(NCc1ccccc1)[C@@H]1CCC(=O)N1Cc1ccc(Cl)cc1Cl | Non-Toxic

These compounds were tested on OVCAR-3 (assay: Cytotoxicity against human OVCAR3 cells assessed as effect on cell growth at 10 uM incubated for 48 hrs by sulforhodamine B assay). Details: ovcar-3, 48 h.
Format: cell-based

SMILES | Activity
CN(C)/C=C1\C[C@H]2C(=O)N(Cc3ccccc3Cl)C(N(C)C)N2C1=O (stereo not given in full) | Non-Toxic
O=C(Nc1ccc(Cl)cc1Cl)[C@@H]1CCC(=O)N1Cc1ccccc1Cl | Non-Toxic
O=C(NCc1ccccc1)[C@@H]1CCC(=O)N1Cc1ccc(Cl)cc1Cl | Non-Toxic

What follows are compounds tested on OVCAR-4 (assay: Cytotoxicity against human OVCAR4 cells assessed as effect on cell growth at 10 uM incubated for 48 hrs by sulforhodamine B assay). Details: ovcar-4, 48 h.
Format: cell-based

SMILES | Activity
CN(C)/C=C1\C[C@H]2C(=O)N(Cc3ccccc3Cl)C(N(C)C)N2C1=O (stereo not given in full) | Non-Toxic
O=C(Nc1ccc(Cl)cc1Cl)[C@@H]1CCC(=O)N1Cc1ccccc1Cl | Non-Toxic
O=C(NCc1ccccc1)[C@@H]1CCC(=O)N1Cc1ccc(Cl)cc1Cl | Non-Toxic

Each compound was assayed on CAKI-1 (assay: Growth inhibition of human Caki1 cells assessed as growth percentage at 10 uM incubated for 48 hrs by sulforhodamine B assay). Details: caki-1, 48 h.
Format: cell-based

SMILES | Activity
CN(C)/C=C1\C[C@H]2C(=O)N(Cc3ccccc3Cl)C(N(C)C)N2C1=O (stereo not given in full) | Non-Toxic
O=C(Nc1ccc(Cl)cc1Cl)[C@@H]1CCC(=O)N1Cc1ccccc1Cl | Non-Toxic
O=C(NCc1ccccc1)[C@@H]1CCC(=O)N1Cc1ccc(Cl)cc1Cl | Non-Toxic

These compounds were tested on RXF 393 (assay: Cytotoxicity against human RXF393 cells assessed as effect on cell growth at 10 uM incubated for 48 hrs by sulforhodamine B assay). Details: rxf 393, 48 h.
Format: cell-based

SMILES | Activity
CN(C)/C=C1\C[C@H]2C(=O)N(Cc3ccccc3Cl)C(N(C)C)N2C1=O (stereo not given in full) | Non-Toxic
O=C(Nc1ccc(Cl)cc1Cl)[C@@H]1CCC(=O)N1Cc1ccccc1Cl | Non-Toxic
O=C(NCc1ccccc1)[C@@H]1CCC(=O)N1Cc1ccc(Cl)cc1Cl | Non-Toxic

Each compound was assayed on SN12C (assay: Cytotoxicity against human SN12C cells assessed as effect on cell growth at 10 uM incubated for 48 hrs by sulforhodamine B assay). Details: not given.
Format: cell-based

SMILES | Activity
CN(C)/C=C1\C[C@H]2C(=O)N(Cc3ccccc3Cl)C(N(C)C)N2C1=O (stereo not given in full) | Non-Toxic
O=C(Nc1ccc(Cl)cc1Cl)[C@@H]1CCC(=O)N1Cc1ccccc1Cl | Non-Toxic
O=C(NCc1ccccc1)[C@@H]1CCC(=O)N1Cc1ccc(Cl)cc1Cl | Non-Toxic

Each compound was assayed on MCF7 (assay: Cytotoxicity against human MCF7 cells assessed as effect on cell growth at 10 uM incubated for 48 hrs by sulforhodamine B assay). Details: mcf7, 48 h.
Format: cell-based

SMILES | Activity
CN(C)/C=C1\C[C@H]2C(=O)N(Cc3ccccc3Cl)C(N(C)C)N2C1=O (stereo not given in full) | Non-Toxic
O=C(Nc1ccc(Cl)cc1Cl)[C@@H]1CCC(=O)N1Cc1ccccc1Cl | Non-Toxic
O=C(NCc1ccccc1)[C@@H]1CCC(=O)N1Cc1ccc(Cl)cc1Cl | Non-Toxic

What follows are compounds tested on MDA-MB-231 (assay: Cytotoxicity against human MDA-MB-231 cells assessed as effect on cell growth at 10 uM incubated for 48 hrs by sulforhodamine B assay). Details: mda-mb-231, 48 h.
Format: cell-based

SMILES | Activity
CN(C)/C=C1\C[C@H]2C(=O)N(Cc3ccccc3Cl)C(N(C)C)N2C1=O (stereo not given in full) | Non-Toxic
O=C(Nc1ccc(Cl)cc1Cl)[C@@H]1CCC(=O)N1Cc1ccccc1Cl | Non-Toxic
O=C(NCc1ccccc1)[C@@H]1CCC(=O)N1Cc1ccc(Cl)cc1Cl | Non-Toxic

These compounds were tested on Hs-578T (assay: Cytotoxicity against human Hs 578T cells assessed as effect on cell growth at 10 uM incubated for 48 hrs by sulforhodamine B assay). Details: not given.
Format: cell-based

SMILES | Activity
CN(C)/C=C1\C[C@H]2C(=O)N(Cc3ccccc3Cl)C(N(C)C)N2C1=O (stereo not given in full) | Non-Toxic
O=C(Nc1ccc(Cl)cc1Cl)[C@@H]1CCC(=O)N1Cc1ccccc1Cl | Non-Toxic
O=C(NCc1ccccc1)[C@@H]1CCC(=O)N1Cc1ccc(Cl)cc1Cl | Non-Toxic

These compounds were tested on BT-549 (assay: Cytotoxicity against human BT549 cells assessed as effect on cell growth at 10 uM incubated for 48 hrs by sulforhodamine B assay). Details: bt-549, 48 h.
Format: cell-based

SMILES | Activity
CN(C)/C=C1\C[C@H]2C(=O)N(Cc3ccccc3Cl)C(N(C)C)N2C1=O (stereo not given in full) | Non-Toxic
O=C(Nc1ccc(Cl)cc1Cl)[C@@H]1CCC(=O)N1Cc1ccccc1Cl | Non-Toxic
O=C(NCc1ccccc1)[C@@H]1CCC(=O)N1Cc1ccc(Cl)cc1Cl | Non-Toxic
